How the values were obtained:
Type in all cases: cell-based
deer sperm = experiment: Post thaw motility of bulk sorted deer sperm (Example 3); conditions: 0 HR; RED TALP with 16 μL, Y6 with 14 μL Hoechst 33342
Procedure: (§1) Each of deer and elk were collected in the Tris-egg yolk catch fluid described as a catch media in Example 1, and shipped for sorting.
(§2) A portion of each of the deer and the elk were stained by the red food dye No. 40 treatment 40% with 16 μL Hoechst 33342 and the yellow food dye No. 6 treatment with 14 μL Hoechst 33342 as described in Example 1.
(§3) Samples were each bulk sorted with the same machine and parameters described in Example 1. Both sorted X and sorted Y sperm were collected into a single catch. The sorted samples were then frozen like those described in Example 1.
(§4) Frozen thawed samples were then tested for post thaw motilities and post thaw DNA fragmentation. Post thaw motilities were slightly higher in Elk sorted with a yellow quencher, while a more significant difference existed in progressive motility. In Table 10, post thaw DNA fragmentation in Elk can be seen at about double after 48 hours when red food dye No. 40 is compared to yellow food dye No. 6 as a dead quencher.

bovine sperm [1] = experiment: Post thaw motility of sex sorted, frozen-thawed bovine sperm (Example 1); conditions: average over all bulls, Red with 16-17 μl, Yellow with 14-15 μl Hoechst 33342 per 2 ml; for Post thaw motility, average 0 Hour: dye 20 g/L in second TALP
Procedure: (§5) Sperm was collected from 10 different bulls on a routine collection schedule using an artificial vagina over the course of 4 days. The 10 bulls included both Jersey bulls and Holstein bulls. All ejaculates contained greater than 60% progressive motility and greater than 70% morphological normal sperm. Antibiotics were added within 15 minutes of collection.
(§6) Red food dye treatment 40% —A reduced volume of red food dye No. 40 control was established. Sperm was diluted to 160×10^6 sperm per ml in a modified TALP buffer, as described in Table 1, at a pH of 7.4. Samples collected from Jersey bulls were incubated with 16 μl of Hoechst 33342 per 2 ml of sample for between 45 and 60 minutes at 34° C., while samples collected from Holstein bulls were incubated 17 μl of Hoechst 33342 per 2 ml of sample for between 45 and 60 minutes at 34° C. After incubation an equal volume of a second modified TALP was added reducing the concentration to 80×10^6. The second modified TALP includes the components described in Table 1 with the addition of 4% egg yolk, 40 μM red food dye No. 40 (20 g/L) and the pH dropped to 5.5 with HCl.
Yellow Food dye treatment—Yellow food dye was included in a second group at an equal concentration. Sperm was diluted to 160×10^6 sperm per ml in a modified TALP buffer, as described in Table 1, at a pH of 7.4. Samples collected from Jersey bulls were incubated with 14 μl of Hoechst 33342 per 2 ml of sample for between 45 and 60 minutes at 34° C., while sample collected from Holstein bulls were incubated 15 μl of Hoechst 33342 per 2 ml of sample for between 45 and 60 minutes at 34° C. After incubation an equal volume of a second modified TALP was added reducing the concentration to 80×10^6. The second modified TALP includes the components described in Table 1 with the addition 4% egg yolk, 20 g/L yellow food dye No. 6 and a pH dropped to 5.5 with HCl.
Just prior to sorting, each sample was filtered though a 40 μm nylon mesh. Each sample was sorted with an MoFlo SX XDP (Beckman Coulter, Inc., CA USA) operating at 40 psi. A tris-citrate-fructose sheath fluid was used comprising Tris(hydroxymethyl)aminomethane (Sigma Chemical Co, St. Louis, Mo., USA) citric acid monohydrate (Sigma Chemical Co, St. Louis, Mo., USA) and fructose (Sigma Chemical Co, St. Louis, Mo., USA). Antibiotics were additionally added to the sheath fluid.
Unquenched sperm having the desired sex characteristics were collected into a single tube with a tris-egg yolk catch fluid and the remaining sperm was removed with waste. […]
(§7) Straws were thawed the following day for motility measurements at 0 hour and 3 hours. Percent intact acrosomes were measured as well, and the overall averages over all bulls on each day are illustrated in Table 3. […]

elk sperm = experiment: Post thaw motility of bulk sorted elk sperm (Example 3); conditions: 0 HR; RED TALP with 16 μL, Y6 with 14 μL Hoechst 33342
Procedure: as §1, §2, §3, §4

bovine sperm [2] = experiment: Post thaw percent intact acrosomes (PIA) of sex sorted bovine sperm (Example 1); conditions: average over all bulls
Procedure: as §5
as §6, with “HCl. […]” for “HCl.”
as §7

canine sperm = experiment: Post thaw motility of sex sorted canine sperm on CASA (Example 4); conditions: for Motile, average / Progressive, average: 0 Hr post thaw
Procedure: Sperm was collected from a single canine at room temperature into CaniPro Chill 5, available from Minitube, Wis., USA, then centrifuged into a pellet and resuspended in a Tris buffer at a pH of 6.8.
Samples were extended to 40×10^6 sperm/ml in 1 ml volumes with the Tris buffer described in Example 1 but set to a pH of 7.2. Ten samples were then stained 4, 4, 5, 5, 7, 8, 8, 9, 9, and 10 μL of Hoechst 33342 and quenched with one of two quenching dyes at a concentration of 50 μM in a second buffer Tris buffer.
Red food dye No. 40 quencher—1 ml Tris at a pH 6.3 was added with red food dye No. 40 into samples stained with 4, 5, 8, 9, 10 μL Hoechst 33342. The red food dye No. 40 was added at a concentration of about 50 μM.
Yellow food dye No. 6 quencher—1 ml Tris at a pH 6.3 was added with yellow food dye No. 6 into samples stained with 4, 5, 7, 8, 9 μL Hoechst 33342. The yellow food dye No. 6 was added at the same concentration as the red food dye No. 40 quencher, at about 50 μM.
5 million cells were sex sorted with a MoFlo SX XPD into 50 mL Falcon tubes having 3.5 mL of a Tris-egg yolk catch fluid, described in Example 1 for both X and Y populations. Two samples were sorted, the red food dye No. 40 quenched treatment with 9 μL Hoechst 33342 and the yellow food dye […] quenched treatment with 7 μL Hoechst 33342.
Straws were then frozen and stored in liquid nitrogen.
Straws were thawed for 30 sec in a 38° C. water bath and their motilities were examined on CASA.
Table 12 illustrates the average motilities and progressive motilities for the sorted treatments. Canine sperm quenched with yellow food dye No. 6 provided about 4.5% more motile sperm in the X population and 6.5% more motile sperm in the Y population. Similarly, the yellow quenched dye provided 7% better progressive motility in the X population and 8% better progressive motility in the Y population.

Structure (SMILES) | Post Thaw Motility Deer, Motile (deer sperm) | Post Thaw Motility Deer, Progressive (deer sperm) | Post thaw motility, average 3 Hour (bovine sperm [1]) [%] | Post thaw motility, average 0 Hour (bovine sperm [1]) [%] | Post Thaw Motility Elk, Motile (elk sperm) | Post Thaw Motility Elk, Progressive (elk sperm) | Average PIA (percent intact acrosomes) (bovine sperm [2]) [%] | Motile, average (canine sperm; X population) | Progressive, average (canine sperm; X population) | Motile, average (canine sperm; Y population) | Progressive, average (canine sperm; Y population) | better progressive motility than with red quencher (canine sperm; X population) [%] | more motile sperm than with red quencher (canine sperm; X population) | better progressive motility than with red quencher (canine sperm; Y population) [%] | more motile sperm than with red quencher (canine sperm; Y population) [%]
COc1cc(S(=O)(=O)O)c(C)cc1N=Nc1c(O)ccc2cc(S(=O)(=O)O)ccc12 [Red 40, 6-hydroxy-5-[(2-methoxy-5-methyl-4-sulfophenyl)azo]-2-naphthalenesulfonic acid, reference compound] | 59.8 | 43.0 | 47.0 | 56.6 | 51.0 | 29.0 | 70.8 | 19.5 | 11.5 | 18.5 | 13 | – | – | – | –
O=S(=O)([O-])c1ccc(N=Nc2c(O)ccc3cc(S(=O)(=O)[O-])ccc23)cc1.[Na+].[Na+] [Yellow 6, Disodium 6-hydroxy-5-[(4-sulfophenyl)azo]-2-naphthalenesulfononate] | 67.5 | 53.2 | 49.0 | 57.7 | 55.5 | 38.0 | 71.3 | 24 | 18.5 | 25 | 21 | 7 | about 4.5% | 8 | 6.5
